From patent publication EP4806892A1, “CEREBLON E3 UBIQUITIN LIGASE INHIBITOR” (GAN & LEE PHARMACEUTICALS CO., LTD., priority 2023, dated 2025)

Experiments:
AR protein [1] = biological target: T1, AR protein (Homo sapiens, UniProt P10275, T878A); assay: AR protein degradation in LNCaP cells (Western blot); assay type: cell-based; conditions: 8 hours
T1 construct: AR-positive human prostate cancer cells (LNCaP, cell source: ATCC); host or cells: LNCaP
Method: AR-positive human prostate cancer cells (LNCaP, cell source: ATCC) were cultured in RPMI 1640 (ATCC catalog number 30-2001) containing 10% FBS (Hyclone catalog number SH30406.05), and the cells were inoculated into a six-well microplate (Thermo catalog number 140675) at a density of 1.5 × 10^5 cells/well. After the cells were cultured overnight in a carbon dioxide incubator (ESCO), the prepared compound of the present invention and the positive control sample ARV-766 (source: energy chemical) solution of different concentrations were added at a volume of 1 µL/well to make the final concentrations of the compound and the positive control sample reach 100nM and 10nM, respectively. At the same time, the corresponding solvent control was set and cultured for 8 hours. After 8 hours of culture, the culture medium was removed, the cells were washed with PBS, and RIPA lysis buffer containing 1% Protease Inhibitor Cocktail was added. After lysis and centrifugation, the total protein extract was obtained, and the protein concentration in the extract was detected by BCA method. Protein electrophoresis was performed using SDS-PAGE, and then the protein was transferred to a PVDF (Millipore Sigma catalog number PSRP010R5) membrane at a constant voltage of 100V for 60 minutes. The PVDF membrane was placed in a 5% milk powder 1×TBST solution and blocked at room temperature for 1 hour. The primary antibody solution (Anti-Androgen receptor, Cell Signaling Technology catalog number: 5153S; 1:2000 dilution) was prepared and incubated at 4°C overnight. The primary antibody solution was discarded and the PVDF membrane was washed with 1×TBST for 5 minutes each time, three times. The secondary antibody solution (Thermo, catalog number SA5-35571; 1:7500 dilution) was prepared and incubated at room temperature for 1 hour. The secondary antibody solution was discarded and the PVDF membrane was washed with 1×TBST for 5 minutes each time, three times. A dual-color infrared laser imaging system (Licor catalog number Odyssey CLX) was used for Western membrane imaging. The Image Studio software was used to analyze the grayscale of the bands. GAPDH protein bands were also detected for each sample as an internal reference. The AR protein degradation rate of the compound and the positive control sample was calculated based on the grayscale of the protein bands. Among them, "A" means degradation rate ≥ 50%, "B" means 50%> degradation rate ≥ 20%, "C" means 20% degradation rate ≥ 10%, and "D" means degradation rate less than 10%.

AR protein [2] = biological target: T2, AR protein (Homo sapiens, UniProt P10275); assay: AR protein degradation in VCaP cells (Western blot); assay type: cell-based; conditions: 8h
T2 construct: AR-positive human prostate cancer cells VCaP (cell source: ATCC); host or cells: VCaP
T2 sequence (P10275 1-920): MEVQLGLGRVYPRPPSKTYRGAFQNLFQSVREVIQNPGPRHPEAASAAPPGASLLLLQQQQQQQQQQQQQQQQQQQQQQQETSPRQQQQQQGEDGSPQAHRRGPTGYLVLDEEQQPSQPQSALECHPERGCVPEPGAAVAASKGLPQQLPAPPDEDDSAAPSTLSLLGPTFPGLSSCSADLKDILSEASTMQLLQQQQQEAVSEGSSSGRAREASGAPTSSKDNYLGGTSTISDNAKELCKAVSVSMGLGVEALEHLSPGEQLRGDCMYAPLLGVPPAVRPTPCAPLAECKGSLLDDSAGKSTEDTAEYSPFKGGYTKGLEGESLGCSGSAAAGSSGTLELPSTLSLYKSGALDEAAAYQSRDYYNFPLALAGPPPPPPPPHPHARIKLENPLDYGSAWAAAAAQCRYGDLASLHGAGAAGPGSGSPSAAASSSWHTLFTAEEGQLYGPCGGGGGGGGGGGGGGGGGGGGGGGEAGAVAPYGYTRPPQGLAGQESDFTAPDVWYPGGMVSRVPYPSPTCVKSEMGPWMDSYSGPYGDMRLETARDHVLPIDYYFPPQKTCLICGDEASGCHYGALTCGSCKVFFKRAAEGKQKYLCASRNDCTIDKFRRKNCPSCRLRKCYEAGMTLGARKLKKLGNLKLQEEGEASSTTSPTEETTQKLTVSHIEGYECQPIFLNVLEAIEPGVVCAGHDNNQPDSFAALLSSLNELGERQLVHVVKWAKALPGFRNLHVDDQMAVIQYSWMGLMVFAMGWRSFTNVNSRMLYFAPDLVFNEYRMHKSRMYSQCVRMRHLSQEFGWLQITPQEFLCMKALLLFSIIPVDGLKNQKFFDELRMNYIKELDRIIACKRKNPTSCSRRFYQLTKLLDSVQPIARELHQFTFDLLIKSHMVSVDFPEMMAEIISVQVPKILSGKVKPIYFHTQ
Method: AR-positive human prostate cancer cells VCaP (cell source: ATCC) were cultured in DMEM (GiBco catalog number 11995-065) containing 10% FBS (Hyclone catalog number SH30406.05), and the cells were inoculated in a six-well microplate (Thermo catalog number 140675) at a density of 3 × 10^5 cells/well. After being cultured overnight in a carbon dioxide incubator (ESCO), the prepared compound of the present invention and the positive control sample ARV-766 (energy chemical) solution of different concentrations were added at a volume of 1 µL/well to make the final concentrations of the compound and the positive control sample reach 5nM and 0.5nM, respectively. At the same time, the corresponding solvent control was set and cultured for 8h. After 8h of culture, the culture medium was removed, and the cells were washed with PBS. RIPA lysis buffer containing 1% Protease Inhibitor Cocktail was added. After lysis and centrifugation, a total protein extract was obtained, and the protein concentration in the extract was detected by BCA method. Protein electrophoresis was performed using SDS-PAGE, and then the protein was transferred to a PVDF (Millipore Sigma catalog number PSRP010R5) membrane at a constant voltage of 100V for 60min. The PVDF membrane was placed in a 5% milk powder 1×TBST solution and blocked at room temperature for 1h. The primary antibody solution (Anti-Androgen receptor, Cell Signaling Technology catalog number: 5153S; 1:2000 dilution) was prepared and incubated at 4°C overnight. The primary antibody solution was discarded and the PVDF membrane was washed with 1×TBST for 5 minutes each time, three times. The secondary antibody solution (Thermo catalog number SA5-35571; 1:7500 dilution) was prepared and incubated at room temperature for 1 hour. The secondary antibody solution was discarded and the PVDF membrane was washed with 1×TBST for 5 minutes each time, three times. A dual-color infrared laser imaging system (Licor catalog number Odyssey CLX) was used for Western membrane imaging. The Image Studio software was used to analyze the grayscale of the bands. GAPDH protein bands were also detected for each sample as an internal reference. The AR protein degradation rate of the compound and the positive control sample was calculated based on the grayscale of the protein bands. Among them, "A" means degradation rate ≥ 50%, "B" means 50%> degradation rate ≥ 20%, "C" means 20% degradation rate ≥ 10%, and "D" means degradation rate less than 10%.

T1 sequence (P10275 whole entry T878A): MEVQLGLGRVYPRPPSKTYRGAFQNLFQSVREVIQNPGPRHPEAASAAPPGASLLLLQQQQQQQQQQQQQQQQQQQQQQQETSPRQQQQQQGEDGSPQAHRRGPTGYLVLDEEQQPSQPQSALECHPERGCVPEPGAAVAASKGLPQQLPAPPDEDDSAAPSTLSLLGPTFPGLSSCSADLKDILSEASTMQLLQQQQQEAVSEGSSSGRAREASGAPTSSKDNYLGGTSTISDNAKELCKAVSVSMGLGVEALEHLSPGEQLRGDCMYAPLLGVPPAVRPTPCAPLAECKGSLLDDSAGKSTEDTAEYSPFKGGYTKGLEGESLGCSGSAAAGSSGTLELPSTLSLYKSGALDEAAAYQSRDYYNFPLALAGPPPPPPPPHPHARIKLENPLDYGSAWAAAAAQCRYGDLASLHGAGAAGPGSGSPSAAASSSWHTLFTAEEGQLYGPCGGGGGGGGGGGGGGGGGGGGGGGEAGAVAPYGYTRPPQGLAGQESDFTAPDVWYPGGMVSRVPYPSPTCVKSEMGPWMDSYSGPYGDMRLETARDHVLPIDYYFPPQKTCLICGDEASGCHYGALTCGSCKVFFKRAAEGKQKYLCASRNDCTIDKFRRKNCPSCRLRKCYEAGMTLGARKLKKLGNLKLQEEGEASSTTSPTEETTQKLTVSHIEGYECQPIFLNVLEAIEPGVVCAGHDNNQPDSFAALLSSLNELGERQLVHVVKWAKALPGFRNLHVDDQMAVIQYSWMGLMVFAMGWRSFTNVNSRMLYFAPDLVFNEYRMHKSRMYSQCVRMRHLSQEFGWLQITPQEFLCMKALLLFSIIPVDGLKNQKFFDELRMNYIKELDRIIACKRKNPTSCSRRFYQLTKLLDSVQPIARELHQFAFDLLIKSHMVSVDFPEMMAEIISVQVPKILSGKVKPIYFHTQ
T1 sequence (Q96SW2 whole entry partner): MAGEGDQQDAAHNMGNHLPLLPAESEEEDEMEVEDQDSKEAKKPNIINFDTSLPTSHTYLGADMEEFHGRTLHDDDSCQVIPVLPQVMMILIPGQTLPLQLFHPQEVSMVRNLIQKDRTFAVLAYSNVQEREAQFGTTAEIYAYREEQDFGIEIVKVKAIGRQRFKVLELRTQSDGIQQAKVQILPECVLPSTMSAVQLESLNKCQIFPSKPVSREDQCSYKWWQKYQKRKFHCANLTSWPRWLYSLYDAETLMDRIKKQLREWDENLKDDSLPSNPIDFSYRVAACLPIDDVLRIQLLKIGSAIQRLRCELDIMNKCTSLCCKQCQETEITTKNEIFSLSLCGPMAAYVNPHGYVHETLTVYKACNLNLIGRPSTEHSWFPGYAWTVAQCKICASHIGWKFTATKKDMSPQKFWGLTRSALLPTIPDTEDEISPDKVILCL

Compound | Degradation rate of AR protein in LNCAP cells (AR protein [1]; 10 nM) | Degradation rate of AR protein in LNCAP cells (AR protein [1]; 100 nM) | Degradation rate of AR protein in VCAP cells (AR protein [2]; 0.5 nM) | Degradation rate of AR protein in VCAP cells (AR protein [2]; 5 nM)
C[C@H]1CC2(CCN(c3ccc(C(=O)N4CCC(CN5CCN6c7ccc(N8CCC(=O)NC8=O)cc7OCC[C@H]6C5)CC4)cc3)CC2)CN1c1ccc(C#N)c(C(F)(F)F)c1 [A-P-195] | A (degradation rate ≥ 50%) | A (degradation rate ≥ 50%) | B (50%> degradation rate ≥ 20%) | A (degradation rate ≥ 50%)
COc1cc(O[C@H]2C(C)(C)[C@H](NC(=O)c3ccc(N4CCC(F)(CN5CCN6c7ccc(N8CCC(=O)NC8=O)cc7OCC[C@H]6C5)CC4)cc3)C2(C)C)ccc1C#N [A-P-196] | B (50%> degradation rate ≥ 20%) | A (degradation rate ≥ 50%) | A (degradation rate ≥ 50%) | A (degradation rate ≥ 50%)
C[C@H]1CC2(CCN(c3ccc(C(=O)N4CCC(CN5CCC6(COc7cc(N8CCC(=O)NC8=O)ccc76)C(F)(F)C5)CC4)cc3)CC2)CN1c1ccc(C#N)c(Cl)c1 (stereo partly shown) [A-P-233] | A (degradation rate ≥ 50%) | A (degradation rate ≥ 50%) |  | B (50%> degradation rate ≥ 20%)
C[C@H]1CC2(CCN(c3ccc(C(=O)N4CCC(CN5CCC6(CC5)CN(C)c5ccc(N7CCC(=O)NC7=O)cc5O6)CC4)cc3)CC2)CN1c1ccc(C#N)c(Cl)c1 [A-P-235, (S)-2-chloro-4-(8-(4-(4-((7-(2,4-dioxotetrahydropyrimidin-1(2H)-yl)-4-methyl-3,4-dihydrospiro[benzo[b][1,4]oxazin-2,4'-piperidine]-1'-yl)methyl)piperidine-1-carbonyl)phenyl)-3-methyl-2,8-diazaspiro[4.5]decane-2-yl)benzonitrile] | A (degradation rate ≥ 50%) | A (degradation rate ≥ 50%) | A (degradation rate ≥ 50%) | A (degradation rate ≥ 50%)
COc1cc(O[C@H]2C(C)(C)[C@H](NC(=O)c3ccc(N4CCC(CN5CCN(c6ccc(C(=O)N[C@H]7CCC(=O)NC7=O)c(F)c6)CC5)CC4)cc3)C2(C)C)ccc1C#N [ARV766, reference compound] | B (50%> degradation rate ≥ 20%) | A (degradation rate ≥ 50%) | A (degradation rate ≥ 50%) | A (degradation rate ≥ 50%)
